Laboratory results: patent US8969303B2, “Tocotrienol esters” (First Tech International Limited, priority 2010, dated 2015)

Experiments:
[1] = system: +SA mammary epithelial cells; assay: Antiproliferative MTT assay on +SA mammary epithelial cells; assay type: cell-based, mouse; conditions: for IC50: malignant mice +SA mammary cells, 24 hour treatment, MTT; for antiproliferative activity: +SA mammary cells, in words
Source text: +SA mammary epithelial cell lines were serially passaged at subconfluent cell density. The +SA cell line was derived from an adenocarcinoma that developed spontaneously in a BALB/c female mouse. That cell line is discussed in more detail in Anderson, L. W., Danielson, K. G., Hosick, H. L. Eur. J. Cancer Clin. Oncol. 1981, 17, 1001-1008, Danielson, K G., Anderson, L. W., Hosick, H. L. Cancer Res. 1980, 40, 1812-1819.31, and Anderson, L. W., Danielson, K. G., Hosick, H. L. In Vitro. 1979, 15, 841-843. Cell culture conditions were similar to those described in detail in Shah, S. J., Gapor, A., Sylvester, P. W. Nutr. Cancer. 2003, 45, 236-246, Shah, S. J., Sylvester, P. W. Biochem. Cell. Biol. 2005, 83, 86-95, Wali, V. B., Sylvester, P. W. Lipids, 2007, 42, 1113-1123, and Wali, V. B., Bachawal, S. V., Sylvester, P. W. Exp. Biol. Med. (Maywood) 2009, 234, 639-650. Briefly, +SA cells were maintained in serum-free defined medium consisting of Dulbecco's modified Eagle's medium (DMEM)/F12 containing 5 mg/ml bovine serum albumin (BSA), […], 100 U/ml soybean trypsin inhibitor, 100 U/ml penicillin, 0.1 mg/ml streptomycin, […], and 10 ng/ml epidermal growth factor. For subculturing, cells were rinsed twice with sterile Ca^2+ and Mg^2+-free phosphate buffered saline (PBS) and incubated in 0.05% trypsin containing 0.025% EDTA in PBS for 5 minutes at 37° C. The released cells were centrifuged, resuspended in serum-free defined media and counted using a hemocytometer. A stock solution of the Compounds was prepared in DMSO. Once dissolved, this solution was added to a small volume of sterile 10% BSA in water and incubated overnight at 37° C. This solution conjugated to BSA was used to prepare various concentrations (0-40 μM) of tocotrienol analogs. DMSO was added to all treatment media such that the final DMSO concentration was the same in all treatment groups within a given experiment and was always less than 0.1%. For cytotoxicity studies, cells were seeded at a density of 5×10^4 cells/well (6 wells/group) in 24-well culture plates and allowed to grow in serum-free control defined media. After a 3 day incubation period (approximately 70% confluency), cells were divided equally into various treatment groups and exposed to their respective treatments for a 24 hour incubation period. Following the 24 hour treatment period, cell viability was measured using the MTT assay. All materials were purchased from Sigma Chemical Company (St. Louis, Mo.) unless otherwise stated.
+SA mammary epithelial cell viable number was determined by the 3-(4,5-dimethylthiazol-2-yl)-2,5-diphenyl tetrazolium bromide (MTT) colorimetric assay. On the day of assay, treatment medium was replaced with fresh growth medium containing 0.42 mg/ml MTT, and the cells in 24-well plates were incubated at 37° C. for 4 hours. Afterward, the medium was removed, and the MTT crystals were dissolved in isopropyl alcohol (1 ml/well). The optical density of each sample was read at 570 nm on a microplate reader (SpectraCount, Packard BioScience Company), against a blank prepared from cell-free cultures. The number of cells/well was calculated against a standard curve prepared by plating various concentrations of cells, as determined by hemocytometer, at the start of each experiment.
Differences among the various treatment groups in +SA cell cytotoxic studies were determined by analysis of variance (ANOVA) followed by Dunnett's t-test. The difference of P<0.05 was considered to be statistically significant as compared with vehicle-treated controls. Linear regression analysis of treatment effects on viable cell number in growth and cytotoxicity studies was used to determine the 50% growth inhibition concentration (IC50) for individual treatments.

[2] = system: MDA-MB-231 cells; assay: Wound healing anti-migratory assay; assay type: cell-based; conditions: Homo sapiens, single dose of 5 μM, 24 hours, read-out: inhibition of the migrated MDA-MB231 cells
Method: The highly metastatic human breast cancer MDA-MB-231 cells were cultured in RPMI 1640 medium containing 10 mM HEPES, 4 mM L-glutamine, 10% fetal bovine serum, penicillin (100 IU mL-1), and streptomycin (50 μg mL-1), and grown in a 5% CO2 atmosphere at 37° C. Cells were plated onto sterile 24-well culture plates and allowed to recover for a confluent cell monolayer formed in each well (>95% confluence). Wounds were then inflicted to each cell monolayer using a sterile 200 μL pipette tip. Media were removed, cells monolayers were washed twice with PBS, and then fresh media containing test compounds were added to each well. Test compounds were prepared in DMSO at 5 μM concentration and added to the plates using DMSO as negative control. Tests were preformed in triplicate. The incubation was carried out for 24 hours under serum-starved conditions, after which the media was removed and the cells were fixed and stained using a Romanowski stain sold under the Diff Quick name (Dade Behring Diagnostics, Aguada, Puerto Rico). The number of cells which migrated on the scratched wound were counted under the microscope in three or more randomly selected fields (magnification: 400×). Final results are expressed as mean+/−SEM per 400× field.

[3] = Stability in phosphate buffer; assay type: physicochemical; conditions: phosphate buffer pH 7.4, 37° C.
Method: The stability of each of α-tocotrienol and Compound 6 was studied at 37° C. in phosphate buffer (pH 7.4). In amber vials, 500 μg/mL of each compound were dissolved in the buffer and the solution was incubated at 37° C. At interval times (0, 0.5, 1, 2, 4, 6, and 24 h), 50 μL it samples were collected and equal volumes of methanol were added to each sample followed by HPLC analysis.
A Shimadzu HPLC system (Columbia, Md.) was used for quantification of α-tocotrienol and Compound 6. This system is composed of SIL 20-AHT autosampler, SPD-20A UV/VIS detector, and LC-20AB pump connected to a Dgu-20A3 degasser. Data acquisition was achieved by LC Solution software version 1.22 SP1 Shimadzu. The following chromatographic conditions were used: […] (250×4.6 mm id; Phenomenex, Torrance, Calif.), flow rate was adjusted to 1.0 mL/min, and λ was set at 295 nm. For α-tocotrienol solubility and stability studies, an isocratic elution with MeOH-EtOH—CH3CN (40:30:30, v/v/v) as mobile phase for 10 min. α-tocotrienol was eluted at 6.7 min. For the simultaneous separation of α-tocotrienol and Compound 6 the following gradient elution was also used starting with H2O— MeOH—N(Et)3 (10:90:0.05, v/v/v) for 5 min, followed by isocratic MeOH—N(Et)3 (100:0.05, v/v) for another 10 min. The retention times were 4 and 14.1 for Compound 6 and α-tocotrienol, respectively. Standard curves for α-tocotrienol and Compound 6 in MeOH were prepared in the range of 0.4-50 μg/mL and 1-1000 μg/mL, respectively. Each compound was quantified using its calibration curve for compounds peak area versus its concentration.

[4] = Mus musculus, Epithelial cell, 24 h

**Q.** For `CC(C)=CCC/C(C)=C/CC/C(C)=C/CC[C@]1(C)CCc2cc(OC(=O)c3ccc(C(=O)O)cc3C(=O)O)c(C)c(C)c2O1` [Compound 2, 4-(((R)-2,7,8-trimethyl-2-((3E,7E)-4,8,12-trimethyltrideca-3,7,11-trienyl)chroman-6-yloxy)carbonyl)isophthalic acid], which IC50 [1, 4] is on record?
**A.** Its IC50 is 620 nM.

**Q.** Which IC50 [1, 4] does the source give for `CC(C)=CCC/C(C)=C/CC/C(C)=C/CC[C@]1(C)CCc2cc(OC(=O)/C=C\C(=O)O)c(C)c(C)c2O1` [Compound 7, (Z)-4-oxo-4-((R)-2,7,8-trimethyl-2-((3E,7E)-4,8,12-trimethyltrideca-3,7,11-trienyl)-chroman-6-yloxy)but-2-enoic acid] here?
**A.** The IC50 was 2300 nM.

**Q.** For `CC(C)=CCC/C(C)=C/CC/C(C)=C/CC[C@]1(C)CCc2cc(OC(=O)c3cc(C(=O)O)ccc3C(=O)O)cc(C)c2O1` [Compound 5, 2-(((R)-2,8-dimethyl-2-((3E,7E)-4,8,12-trimethyltrideca-3,7,11-trienyl)chroman-6-yloxy)-carbonyl)terephthalic acid], which IC50 [1, 4] is on record?
**A.** Its IC50 is 1500 nM.

**Q.** What does the source list for `CC(C)=CCC/C(C)=C/CC/C(C)=C/CC[C@]1(C)CCc2c(C)c(OC(=O)c3cc(C(=O)O)ccc3C(=O)O)c(C)c(C)c2O1` [Compound 3, 2-(((R)-2,5,7,8-tetramethyl-2-((3E,7E)-4,8,12-trimethyltrideca-3,7,11-trienyl)chroman-6-yloxy)carbonyl)terephthalic acid]?
**A.** IC50 [1, 4]: 1460 nM; inhibition at 5 µM [2]: ~50%

**Q.** With `CC(C)=CCC/C(C)=C/CC/C(C)=C/CC[C@]1(C)CCc2cc(OC(=O)c3ccccc3)c(C)c(C)c2O1` [Compound 10, (R)-2,7,8-trimethyl-2-((3E,7E)-4,8,12-trimethyltrideca-3,7,11-trienyl)chroman-6-yl benzoate] as the molecule, how does the antiproliferative activity [1] read?
**A.** Its antiproliferative activity is “inactive”.

**Q.** And the IC50 [1, 4]?
**A.** Its IC50 is 6550 nM.

**Q.** And the inhibition at 5 µM [2]?
**A.** Its inhibition at 5 µM is roughly 50%.

**Q.** For `CC(C)=CCC/C(C)=C/CC/C(C)=C/CC[C@]1(C)CCc2c(C)c(OC(=O)c3ccc(C(=O)O)cc3C(=O)O)c(C)c(C)c2O1` [Compound 1, 4-(((R)-2,5,7,8-tetramethyl-2-((3E,7E)-4,8,12-trimethyltrideca-3,7,11-trienyl)chroman-6-yloxy)carbonyl)isophthalic acid], which IC50 [1, 4] is on record?
**A.** The IC50 was 1500 nM.

**Q.** And the inhibition at 5 µM [2]?
**A.** Its inhibition at 5 µM is roughly 50%.

**Q.** For `CC(=O)Oc1cc(C(=O)Oc2cc3c(c(C)c2C)O[C@](C)(CC/C=C(\C)CC/C=C(\C)CCC=C(C)C)CC3)cc(OC(C)=O)c1OC(C)=O` [Compound 11, 5-(((R)-2,7,8-trimethyl-2-((3E,7E)-4,8,12-trimethyltrideca-3,7,11-trienyl)chroman-6-yloxy)carbonyl)benzene-1,2,3-triyl triacetate], which IC50 [1, 4] is on record?
**A.** The IC50 was 1720 nM.

**Q.** With `CC(C)=CCC/C(C)=C/CC/C(C)=C/CC[C@]1(C)CCc2cc(OC(=O)c3cc(C(=O)O)ccc3C(=O)O)c(C)c(C)c2O1` [Compound 4, 2-(((R)-2,7,8-trimethyl-2-((3E,7E)-4,8,12-trimethyltrideca-3,7,11-trienyl)chroman-6-yloxy)carbonyl)terephthalic acid] as the molecule, how does the IC50 [1, 4] read?
**A.** The IC50 was 1440 nM.

**Q.** With `CC(=O)Oc1ccc(/C=C/C(=O)Oc2cc3c(c(C)c2C)O[C@](C)(CC/C=C(\C)CC/C=C(\C)CCC=C(C)C)CC3)cc1OC(C)=O` [Compound 12, 4-((E)-3-oxo-3-((R)-2,7,8-trimethyl-2-((3E,7E)-4,8,12-trimethyltrideca-3,7,11-trienyl)chroman-6-yloxy)prop-1-enyl)-1,2-phenylene diacetate] as the molecule, how does the antiproliferative activity [1] read?
**A.** Its antiproliferative activity is “inactive”.

**Q.** What about the IC50 [1, 4] of the same molecule?
**A.** Its IC50 is greater than 40000 nM.

**Q.** Which results are given for `CC(C)=CCC/C(C)=C/CC/C(C)=C/CC[C@]1(C)CCc2cc(OC(=O)/C=C\C(=O)O)cc(C)c2O1` [Compound 8, (Z)-4-((R)-2,8-dimethyl-2-((3E,7E)-4,8,12-trimethyltrideca-3,7,11-trienyl)chroman-6-yloxy)-4-oxobut-2-enoic acid]?
**A.** IC50 [1, 4]: 860 nM; IC50 [1]: 870 nM

**Q.** Which antiproliferative activity [1] does the source give for `CC(C)=CCC/C(C)=C/CC/C(C)=C/CC[C@]1(C)CCc2cc(OC(=O)CC(C)CC(=O)O)c(C)c(C)c2O1` (stereo partly drawn) [Compound 9, 3-Methyl-5-oxo-5-((R)-2,7,8-trimethyl-2-((3E,7E)-4,8,12-trimethyltrideca-3,7,11-trienyl)chroman-6-yloxy)pentanoic acid] here?
**A.** The antiproliferative activity was “inactive”.

**Q.** What about the IC50 [1, 4] of the same molecule?
**A.** Its IC50 is 19200 nM.

**Q.** Which “stability in phosphate buffer (in words)” value [3] does the source give for `CC(C)=CCC/C(C)=C/CC/C(C)=C/CC[C@]1(C)CCc2c(C)c(O)c(C)c(C)c2O1` [α-tocotrienol] here?
**A.** Its value is “highly unstable”.

**Q.** And the “start of decomposition after dissolution” value [3]?
**A.** The value was 1 h.

**Q.** What about the “chemical stability relative to the zero time concentration” value ([3]; over 24 h) of the same molecule?
**A.** Its value is “completely undetectable”.
